# Assay results taken from patent US6737383B1, “Herbicidal oxadiazolidines” (priority 1999, dated 2004).
# What was measured:
# [1] = system: velvetleaf; assay: Test B pre/postemergence velvetleaf; type: in vivo, Abutilon theophrasti
# Procedure, shortened: (§1)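 Herbicidal effect was estimated by eye on a ten-point control scale after plants spent twelve to sixteen days in a greenhouse following soil or foliar treatment. Foliar sprays targeted plants at one to four leaves; all doses were formulated in a non-phytotoxic solvent with surfactant.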
# [2] = system: cocklebur; assay: Test B pre/postemergence cocklebur; type: in vivo, Xanthium strumarium
# Procedure, shortened: as §1
# [3] = system: purple nutsedge; assay: Test B pre/postemergence purple nutsedge; type: in vivo, Cyperus rotundus
# Procedure, shortened: as §1
# [4] = system: morningglory; assay: Test B pre/postemergence morningglory; type: in vivo, Ipomoea hederacea
# Procedure, shortened: as §1
# [5] = system: sugar beet; assay: Test B pre/postemergence sugar beet; type: in vivo, Beta vulgaris
# Procedure, shortened: as §1
# [6] = system: soybean; assay: Test B pre/postemergence soybean; type: in vivo, Glycine max
# Procedure, shortened: as §1
# [7] = system: giant foxtail; assay: Test B pre/postemergence giant foxtail; type: in vivo, Setaria faberii
# Procedure, shortened: as §1
# [8] = system: wild oat; assay: Test B pre/postemergence wild oat; type: in vivo, Avena fatua
# Procedure, shortened: as §1
# [9] = system: wheat; assay: Test B pre/postemergence wheat; type: in vivo, Triticum aestivum
# Procedure, shortened: as §1
# [10] = system: rape; assay: Test B pre/postemergence rape; type: in vivo, Brassica napus
# Procedure, shortened: as §1
# [11] = system: corn; assay: Test B pre/postemergence corn; type: in vivo, Zea mays
# Procedure, shortened: as §1
# [12] = system: rice; assay: Test B flood test rice; type: in vivo, Oryza sativa; conditions: Pre-emergence
# Procedure, shortened: (§2)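 Plants were grown to the 2-leaf stage before treatment with test chemical, then held in a greenhouse for twelve to sixteen days. Injury was visually rated against untreated controls on a 0–10 scale, where 0 is no effect and 10 is complete control.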
# [13] = system: duck salad; assay: Test B flood test duck salad; type: in vivo, Heteranthera limosa; conditions: Pre-emergence
# Procedure, shortened: as §2
# [14] = system: crabgrass; assay: Test B pre/postemergence crabgrass; type: in vivo, Digitaria sanguinalis
# Procedure, shortened: as §1
# [15] = system: pigweed; assay: Test B pre/postemergence pigweed; type: in vivo, Amaranthus retroflexus
# Procedure, shortened: as §1
# [16] = system: bamyardgrass; assay: Test B flood test barnyardgrass; type: in vivo, Echinochloa crus-galli; conditions: Pre-emergence
# Procedure, shortened: as §2
# [17] = Postemergence, Rate 125 g/ha, scale 0 to 10, 0 is no effect, 10 is complete control
# [18] = Preemergence, Rate 62 g/ha, scale of 0 to 10 where 0 is no effect and 10 is complete control
# [19] = Preemergence, Rate 250 g/ha, scale of 0 to 10 where 0 is no effect and 10 is complete control
# [20] = Preemergence, Rate 500 g/ha, scale of 0 to 10 where 0 is no effect and 10 is complete control
# [21] = Rate 62 g/ha, Postemergence, scale 0 to 10, 0 no effect, 10 complete control
# [22] = Rate 500 g/ha, Postemergence, scale 0 to 10, 0 no effect, 10 complete control
# [23] = Rate 1000 g/ha, scale 0 to 10 (0 no effect, 10 complete control)
# [24] = Rate 125 g/ha, flood test species, scale 0 to 10 where 0 is no effect and 10 is complete control
# [25] = Rate 250 g/ha, flood-test species, scale 0 to 10, 0 is no effect, 10 is complete control
# [26] = Rate 500 g/ha, flood test species, scale 0 to 10 (0 no effect, 10 complete control)
structure (smiles),measurement,setting,value
CC(C)N(C(=O)n1oc(=O)n(-c2ccc3ccccc3c2)c1=O)c1ccccc1 [Compound 332],"Plant response rating, Velvetleaf",[1]; [17],0
same,Velvetleaf plant response rating,[1]; [18],0
same,Velvetleaf plant response rating (0 to 10 scale),"[1]; Preemergence, Rate 125 g/ha",0
same,Velvetleaf plant response rating,[1]; [19],0
same,Velvetleaf plant response rating,[1]; [20],0
same,Velvetleaf plant response rating,[1]; [21],0
same,"Plant response rating, Velvetleaf",[1]; [22],0
same,"Plant response rating, Cocklebur",[2]; [17],0
same,Cocklebur plant response rating,[2]; [18],0
same,Cocklebur plant response rating (0 to 10 scale),"[2]; Preemergence, Rate 125 g/ha",0
same,Cocklebur plant response rating,[2]; [19],0
same,Cocklebur plant response rating,[2]; [20],0
same,Cocklebur plant response rating,[2]; [21],0
same,"Plant response rating, Cocklebur",[2]; [22],0
same,"Plant response rating, Nutsedge",[3]; [17],0
same,Nutsedge plant response rating,[3]; [18],0
same,Nutsedge plant response rating (0 to 10 scale),"[3]; Preemergence, Rate 125 g/ha",0
same,Nutsedge plant response rating,[3]; [19],0
same,Nutsedge plant response rating,[3]; [20],0
same,Nutsedge plant response rating,[3]; [21],0
same,"Plant response rating, Nutsedge",[3]; [22],0
same,"Plant response rating, Morningglory",[4]; [17],0
same,Morningglory plant response rating,[4]; [18],0
same,Morningglory plant response rating (0 to 10 scale),"[4]; Preemergence, Rate 125 g/ha",0
same,Morningglory plant response rating,[4]; [19],0
same,Morningglory plant response rating,[4]; [20],0
same,Morningglory plant response rating,[4]; [21],0
same,"Plant response rating, Morningglory",[4]; [22],0
same,"Plant response rating, Sugarbeets",[5]; [17],0
same,Sugarbeets plant response rating,[5]; [18],0
same,Sugarbeets plant response rating (0 to 10 scale),"[5]; Preemergence, Rate 125 g/ha",0
same,Sugarbeets plant response rating,[5]; [19],0
same,Sugarbeets plant response rating,[5]; [20],0
same,Sugarbeets plant response rating,[5]; [21],0
same,"Plant response rating, Sugarbeets",[5]; [22],0
same,"Plant response rating, Soybean",[6]; [17],2
same,Soybean plant response rating,[6]; [18],0
same,Soybean plant response rating (0 to 10 scale),"[6]; Preemergence, Rate 125 g/ha",0
same,Soybean plant response rating,[6]; [19],0
same,Soybean plant response rating,[6]; [20],0
same,Soybean plant response rating,[6]; [21],2
same,"Plant response rating, Soybean",[6]; [22],3
same,"Plant response rating, Giant foxtail",[7]; [17],0
same,Giant foxtail plant response rating,[7]; [18],0
same,Giant foxtail plant response rating (0 to 10 scale),"[7]; Preemergence, Rate 125 g/ha",1
same,Giant foxtail plant response rating,[7]; [19],4
same,Giant foxtail plant response rating,[7]; [20],7
same,Giant foxtail plant response rating,[7]; [21],0
same,"Plant response rating, Giant foxtail",[7]; [22],0
same,"Plant response rating, Wild oats",[8]; [17],0
same,Wild oats plant response rating,[8]; [18],0
same,Wild oats plant response rating (0 to 10 scale),"[8]; Preemergence, Rate 125 g/ha",0
same,Wild oats plant response rating,[8]; [19],0
same,Wild oats plant response rating,[8]; [20],0
same,Wild oats plant response rating,[8]; [21],0
same,"Plant response rating, Wild oats",[8]; [22],0
same,"Plant response rating, Wheat",[9]; [17],0
same,Wheat plant response rating,[9]; [18],0
same,Wheat plant response rating (0 to 10 scale),"[9]; Preemergence, Rate 125 g/ha",0
same,Wheat plant response rating,[9]; [19],0
same,Wheat plant response rating,[9]; [20],0
same,Wheat plant response rating,[9]; [21],0
same,"Plant response rating, Wheat",[9]; [22],0
same,"Plant response rating, Rape",[10]; [17],0
same,Rape plant response rating,[10]; [18],0
same,Rape plant response rating (0 to 10 scale),"[10]; Preemergence, Rate 125 g/ha",0
same,Rape plant response rating,[10]; [19],0
same,Rape plant response rating,[10]; [20],0
same,Rape plant response rating,[10]; [21],0
same,"Plant response rating, Rape",[10]; [22],0
same,"Plant response rating, Corn",[11]; [17],0
same,Corn plant response rating,[11]; [18],0
same,Corn plant response rating (0 to 10 scale),"[11]; Preemergence, Rate 125 g/ha",0
same,Corn plant response rating,[11]; [19],0
same,Corn plant response rating,[11]; [20],0
same,Corn plant response rating,[11]; [21],0
same,"Plant response rating, Corn",[11]; [22],0
same,Rice plant response rating,[12]; [23],0
same,Rice plant response rating,[12]; [24],0
same,Rice plant response rating,[12]; [25],0
same,Rice plant response rating,[12]; [26],0
same,Ducksalad plant response rating,[13]; [23],0
same,Ducksalad plant response rating,[13]; [24],0
same,Ducksalad plant response rating,[13]; [25],0
same,Ducksalad plant response rating,[13]; [26],0
same,"Plant response rating, Crabgrass",[14]; [17],1
same,Crabgrass plant response rating,[14]; [18],0
same,Crabgrass plant response rating (0 to 10 scale),"[14]; Preemergence, Rate 125 g/ha",0
same,Crabgrass plant response rating,[14]; [19],3
same,Crabgrass plant response rating,[14]; [20],5
same,Crabgrass plant response rating,[14]; [21],0
same,"Plant response rating, Crabgrass",[14]; [22],3
same,"Plant response rating, Redroot pigweed",[15]; [17],1
same,Redroot pigweed plant response rating,[15]; [18],0
same,Redroot pigweed plant response rating (0 to 10 scale),"[15]; Preemergence, Rate 125 g/ha",0
same,Redroot pigweed plant response rating,[15]; [19],0
same,Redroot pigweed plant response rating,[15]; [20],3
same,Redroot pigweed plant response rating,[15]; [21],0
same,"Plant response rating, Redroot pigweed",[15]; [22],4
same,Barnyardgrass plant response rating,[16]; [23],0
same,Barnyardgrass plant response rating,[16]; [24],0
same,Barnyardgrass plant response rating,[16]; [25],0
same,Barnyardgrass plant response rating,[16]; [26],0
